Values quoted from earlier work, collected in publication PMC7347157 (Chemical communications (Cambridge, England), 2019).

Details: unlabeled dienophile

| Compound | log P |
| --- | --- |
| trans-5-oxocene [compound 4] | 0.51 |
| OC1CC/C=C/CCC1 (stereo not drawn) [5-hydroxy-trans-cyclooctene] | 1.11 |
